Assay results published in patent US20020137209A1, “Methods of dissociating nongenotropic from genotropic activity of steroid receptors” (priority 2000, published 2002).

Key:
[1] = tested on: vertebral osteoblast and osteocyte apoptosis; assay: Osteoblast and osteocyte apoptosis in vertebrae of ovariectomized mice (TUNEL); type: in vivo; settings: data not shown
[2] = tested on: osteocytic cell line MLO-Y4; assay: Apoptosis of MLO-Y4 osteocytic cells (trypan blue); type: cell-based
[3] = tested on: ERK1/2; assay: ERK phosphorylation in MLO-Y4 cells (Western blot); type: cell-based; settings: MLO-Y4 cells
Procedure: Western blot analysis. The phosphorylation status of ERK1/2 was analyzed by immunoblotting using a mouse monoclonal antibody recognizing tyrosine phosphorylated ERK1/2, or a rabbit polyclonal antibody recognizing total ERK1/2, followed by incubation with either an anti-mouse or an anti-rabbit antibody conjugated with horseradish peroxidase (Santa Cruz Biotechnology).

[4] = tested on: embryonic fibroblasts derived from Src−/− mice; assay: Apoptosis in embryonic fibroblasts from Src−/− mice; type: cell-based; settings: ER- and AR-expressing, also lack yes and Fyn
Procedure: Cell lysates were obtained and proteins were analyzed by Western blot analysis using anti-ERK1/2 or anti-phospho-ERK1/2 (p-ERK1/2) antibodies. […] After 30 min, etoposide was added and apoptosis was assayed 6 hours later as in FIG. 1B. […] RT-PCR was performed as described in the experimental procedures. C-E. HeLa cells were transfected with Nuc-EGFP and with expression vectors encoding the full length ERα or its E domain, or the AR alone (C, left panel) or together with a dn MEK (C, right panel); a Src mutant lacking the kinase activity (Src K^−), a Src mutant lacking the SH2 domain (Src ΔSH2), or a Src mutant lacking the SH3 domain (Src ΔSH3) (D); or with ERα together with wt Shc, or the dn Shc mutants Y239F/Y240F/Y317F (Shc FFF), Y317F (Shc YYF) or Y239F/Y240F (Shc FFY) (E). Bars represent means±SD of triplicate determinations. *p<0.05 versus cells cultured without steroids, by ANOVA.
Quantification of apoptotic cells in vitro. Apoptotic cells were quantified either by trypan blue staining or by direct visualization of changes in nuclear morphology (in the case of transfected HeLa cells), as previously described (Plotkin,L. et al. (1999). J.
RT-PCR analysis of the ERs and AR in embryonic fibroblasts. […]

[5] = tested on: lactoferrin mRNA in the uterus; settings: WT mice, E2 20 ng/g body weight for 28 days; stated as known; cited from earlier work
[6] = tested on: calvaria-derived murine osteoblastic cells; assay: Apoptosis of calvaria-derived osteoblastic cells (trypan blue); settings: 10^−8 M steroid
[7] = target: ERβ (Homo sapiens, UniProt Q92731); assay: Etoposide-induced apoptosis in HeLa cells transfected with ERβ; settings: HeLa transfected with ERβ
Sequence of ERβ (Q92731 whole entry, species assumed): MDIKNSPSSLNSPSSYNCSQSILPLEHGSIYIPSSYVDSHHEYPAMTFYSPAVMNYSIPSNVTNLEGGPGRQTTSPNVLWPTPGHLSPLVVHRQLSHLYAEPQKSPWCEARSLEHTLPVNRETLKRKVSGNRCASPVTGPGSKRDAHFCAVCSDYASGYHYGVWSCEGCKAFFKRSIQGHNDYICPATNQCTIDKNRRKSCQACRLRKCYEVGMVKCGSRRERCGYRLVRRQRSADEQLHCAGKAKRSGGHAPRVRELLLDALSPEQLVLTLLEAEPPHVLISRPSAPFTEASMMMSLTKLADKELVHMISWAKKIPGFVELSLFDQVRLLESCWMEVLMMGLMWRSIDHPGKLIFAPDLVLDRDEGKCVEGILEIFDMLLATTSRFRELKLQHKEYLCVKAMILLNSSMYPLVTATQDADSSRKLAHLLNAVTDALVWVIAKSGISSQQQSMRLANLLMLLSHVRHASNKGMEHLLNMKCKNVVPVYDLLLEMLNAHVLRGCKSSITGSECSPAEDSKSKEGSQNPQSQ

[8] = tested on: HeLa cells transfected with the vector without receptor (empty vector, ev); assay: Etoposide-induced apoptosis in HeLa cells transfected with empty vector; settings: 10^−12M to 10^−8 M
[9] = Bone remodeling in mice given doxycycline in drinking water; type: in vivo; settings: 0.5 mg/ml in drinking water; stated as established
Procedure: Tet-F6 and wild type animals are assessed for bone mass by in vivo DEXA analysis at weekly intervals following the turning on of the transgene or the overiectomy. At the end of the 4-6 week period, both groups of animals are sacrificed and the following determinations made: a) whole body and uterine and mammary gland weights, b) length of the long bones and the width between the periosteal and endosteal bone, c) osteoblastogenesis and osteoclastogenesis in ex vivo cultures of bone marrow cells, d) prevalence of osteoblast/osteocyte and osteoclast apoptosis in sections of vertebrae, e) rate of bone formation and resorption by dynamic histomorphometry and f) compression strength of the vertebrae. An intraperitoneal injection of 30ng/g body weight of oxytetracycline-hydrochloride is administered 8 days and 2 days before sacrificing the animals for the dynamic histomorphometry analysis. It is important to note that the TET ON system is 100-1000 fold less sensitive to tetracycline than it is to doxycycline. […] Therefore, this maneuver should not influence the expression of the transgene, which at this stage will have been turned on with doxycycline.

effect on bone remodeling [9]	Structure (SMILES)	prevention of the ovariectomy-induced increase in osteoblast and osteocyte apoptosis [1]	prevention of apoptosis induced by etoposide, dexamethasone or TNFα ([2]; 10^−8 M steroid)	dose-dependent inhibition of etoposide-induced apoptosis compared with calvaria cells ([2]; not shown)	time of maximal effect on phosphorylation of ERKs [3]	anti-apoptotic effect in Src−/− fibroblasts (unlike Src+/+ wild type controls) [4]	increase of lactoferrin mRNA in the uterus [5]	prevention of apoptosis induced by etoposide, dexamethasone or TNFα [6]	prevention of etoposide-induced apoptosis [7]	effect on etoposide-induced apoptosis [8]
–	C[C@]12CC[C@@H]3c4ccc(O)cc4CC[C@H]3[C@@H]1CC[C@@H]2O [E2, 17β-estradiol]	prevented	prevented apoptosis	identical results	5 min	unresponsive	approximately 5 fold	prevented apoptosis	prevented apoptosis in a dose-dependent manner	Neither E2 nor DHT (10^−12M to 10^−8 M) had an effect
no effect on bone remodeling	C[C@H]1c2cccc(O)c2C(=O)C2=C(O)[C@]3(O)C(=O)C(C(N)=O)=C(O)[C@@H](N(C)C)[C@@H]3[C@@H](O)[C@@H]21 [doxycycline]	–	–	–	–	–	–	–	–	–
